Test results from patent US4757080A, “1,4-dihydropyridine derivatives” (Heumann Pharma GmbH & Co., priority 1986, dated 1988).

Experiments:
[1] = biological target: T1, isolated guineapig's ileum (Cavia porcellus); test: calcium antagonistic activity on isolated guineapig's ileum stimulated with barium chloride; details: read-out: pA2-value (BaCl2) (converted)
T1 construct: isolated guineapig's ileum; from tissue; host or cells: isolated guinea pig ileum

[2] = biological target: T2, H2-receptor (Cavia porcellus, UniProt P47747); test: H2 agonistic activity (pD2-values), method of J. M. van Rossum, cumulative dose-response curves in isolated organs
T2 construct: Technique for the making of dose-response curves in isolated organs; from tissue
Description: Technique for the making of dose-response curves in isolated organs and the evaluation of drug parameters, Arch. Intern. Pharmacodyn. Therap.

[3] = system: arterial resistance, coronary dilatation, activity of the heart; details: in words, background, cited from earlier work

T2 sequence (P47747 whole entry): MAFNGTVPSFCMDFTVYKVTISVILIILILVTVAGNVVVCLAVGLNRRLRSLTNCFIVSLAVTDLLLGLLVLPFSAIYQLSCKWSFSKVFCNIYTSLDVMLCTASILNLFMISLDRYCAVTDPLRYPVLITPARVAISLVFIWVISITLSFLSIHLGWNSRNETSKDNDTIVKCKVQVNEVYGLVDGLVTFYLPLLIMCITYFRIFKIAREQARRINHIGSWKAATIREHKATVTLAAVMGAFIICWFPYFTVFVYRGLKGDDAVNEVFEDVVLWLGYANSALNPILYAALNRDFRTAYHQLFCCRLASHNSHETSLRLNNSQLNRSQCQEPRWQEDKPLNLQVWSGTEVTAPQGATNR
T1 sequence (O35505 whole entry): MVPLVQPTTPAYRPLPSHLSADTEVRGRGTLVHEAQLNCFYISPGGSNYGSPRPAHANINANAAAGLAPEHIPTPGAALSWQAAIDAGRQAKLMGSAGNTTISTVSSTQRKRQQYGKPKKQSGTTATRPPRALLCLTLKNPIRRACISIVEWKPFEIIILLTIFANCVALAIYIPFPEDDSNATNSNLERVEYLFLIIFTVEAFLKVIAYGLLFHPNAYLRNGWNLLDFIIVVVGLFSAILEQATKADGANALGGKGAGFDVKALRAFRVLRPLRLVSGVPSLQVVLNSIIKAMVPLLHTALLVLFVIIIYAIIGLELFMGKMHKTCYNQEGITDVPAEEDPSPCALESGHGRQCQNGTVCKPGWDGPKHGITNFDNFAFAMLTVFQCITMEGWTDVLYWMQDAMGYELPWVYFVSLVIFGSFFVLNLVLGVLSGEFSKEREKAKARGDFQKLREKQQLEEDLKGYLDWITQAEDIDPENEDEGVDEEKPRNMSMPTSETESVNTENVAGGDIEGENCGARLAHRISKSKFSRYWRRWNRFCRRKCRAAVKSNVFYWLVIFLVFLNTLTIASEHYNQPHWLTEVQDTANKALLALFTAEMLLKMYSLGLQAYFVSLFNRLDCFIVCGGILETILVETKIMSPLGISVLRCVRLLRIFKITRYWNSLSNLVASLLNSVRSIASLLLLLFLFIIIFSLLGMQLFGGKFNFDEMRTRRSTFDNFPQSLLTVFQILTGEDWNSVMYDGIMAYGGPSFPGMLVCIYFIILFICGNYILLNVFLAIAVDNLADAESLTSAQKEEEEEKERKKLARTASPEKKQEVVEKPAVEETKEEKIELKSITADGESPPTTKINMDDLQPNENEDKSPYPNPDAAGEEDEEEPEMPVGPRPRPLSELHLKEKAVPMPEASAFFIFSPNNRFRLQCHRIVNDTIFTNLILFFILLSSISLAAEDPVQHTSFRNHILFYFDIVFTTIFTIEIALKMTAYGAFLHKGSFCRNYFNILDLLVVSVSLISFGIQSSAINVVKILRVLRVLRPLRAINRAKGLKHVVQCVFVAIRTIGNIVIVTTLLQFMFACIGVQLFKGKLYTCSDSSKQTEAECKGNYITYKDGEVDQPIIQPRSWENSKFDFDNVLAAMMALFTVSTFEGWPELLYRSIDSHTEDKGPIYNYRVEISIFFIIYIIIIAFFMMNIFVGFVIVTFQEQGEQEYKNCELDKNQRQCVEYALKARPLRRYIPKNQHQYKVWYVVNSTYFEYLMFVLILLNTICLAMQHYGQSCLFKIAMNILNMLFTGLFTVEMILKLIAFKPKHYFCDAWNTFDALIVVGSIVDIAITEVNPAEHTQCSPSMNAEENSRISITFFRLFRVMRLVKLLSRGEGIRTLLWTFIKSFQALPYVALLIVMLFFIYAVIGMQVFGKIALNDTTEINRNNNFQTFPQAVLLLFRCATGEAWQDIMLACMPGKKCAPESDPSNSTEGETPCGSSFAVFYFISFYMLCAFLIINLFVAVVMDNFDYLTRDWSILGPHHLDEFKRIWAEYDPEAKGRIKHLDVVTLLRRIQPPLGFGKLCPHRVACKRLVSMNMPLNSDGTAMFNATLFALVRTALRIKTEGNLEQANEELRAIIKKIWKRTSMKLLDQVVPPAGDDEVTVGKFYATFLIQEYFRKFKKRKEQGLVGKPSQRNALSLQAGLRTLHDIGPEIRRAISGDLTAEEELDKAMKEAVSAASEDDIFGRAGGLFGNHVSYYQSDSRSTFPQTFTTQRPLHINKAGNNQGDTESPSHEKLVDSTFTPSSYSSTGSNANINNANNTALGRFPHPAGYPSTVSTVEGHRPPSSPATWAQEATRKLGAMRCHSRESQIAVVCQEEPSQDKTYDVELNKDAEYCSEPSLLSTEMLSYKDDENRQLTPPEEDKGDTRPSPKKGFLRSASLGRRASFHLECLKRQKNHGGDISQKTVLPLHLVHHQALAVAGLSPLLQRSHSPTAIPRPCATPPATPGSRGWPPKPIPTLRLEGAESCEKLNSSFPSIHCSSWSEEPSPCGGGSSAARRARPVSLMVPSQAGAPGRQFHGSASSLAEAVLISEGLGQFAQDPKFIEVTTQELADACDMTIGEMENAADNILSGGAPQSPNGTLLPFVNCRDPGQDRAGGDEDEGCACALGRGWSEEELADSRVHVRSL

Kb [1] [nM] | EC50 [2] [nM] | Compound | arterial resistance [3] | coronary dilatory effect [3] | inhibition of the activity of the heart ([3]; therapeutic doses)
38 | 47.9 | COC(=O)C1=C(C)NC(C)=C(C(=O)OCCNC(=N)NCCCc2c[nH]cn2)C1c1ccccc1[N+](=O)[O-] (stereo not shown) [Example 1, N^1-[2-[1,4-Dihydro-2,6-dimethyl-3-methoxycarbonyl-4-(2-nitrophenyl)-pyridine-5-carboxy]ethyl]-N^2-[3-(1H-imidazol-4-yl)propyl]-guanidine-hydriodide] | – | – | –
110 | 38.9 | COC(=O)C1=C(C)NC(C)=C(C(=O)OCCCCCCNC(=N)NCCCc2c[nH]cn2)C1c1cccc([N+](=O)[O-])c1 (stereo not shown) [Example 7, N^1-[6[1,4-dihydro-2,6-dimethyl-3-methoxycarbonyl-4-(3-nitrophenyl)-pyridine-5-carboxy]hexyl]-N^2 [3-(1H-imidazol-4-yl)propyl]-guanidine hydriodide] | – | – | –
30.2 | 331 | COC(=O)C1=C(C)NC(C)=C(C(=O)OCCNC(=N)NCCCc2c[nH]cn2)C1c1cccc(Cl)c1Cl (stereo not shown) [Example 8, N^1-[2-[1,4-Dihydro-2,6-dimethyl-3-methoxycarbonyl-4-(2,3-dichlorophenyl)-pyridine-5-carboxy]ethyl]-N^2-[3-(1H-imidazol-4-yl)propyl]-guanidine hydriodide] | – | – | –

The remaining lines, values behind:

Compound | Kb [1] [nM] | EC50 [2] [nM] | arterial resistance [3] | coronary dilatory effect [3] | inhibition of the activity of the heart ([3]; therapeutic doses)
Cc1[nH]cnc1CSCCNC(=N)NCCCc1c[nH]cn1 [Impromidine, reference compound] | – | 21.4 | – | – | –
COC(=O)C1=C(C)NC(C)=C(C(=O)OC)C1c1ccccc1[N+](=O)[O-] [Nifedipine, 1,4-dihydro-2,6-dimethyl-4-(2-nitrophenyl)-3,5-pyridine carboxylic acid dimethyl ester] | – | – | lowers the arterial resistance | very marked coronary dilatory effect | without inhibiting the activity of the heart
